From PubChem BioAssay (NCI)
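Cultured in 96-well plates, cells were exposed to test compound for 48 hours across five concentrations. GI50: concentration for 50% inhibition of growth. TGI: total growth inhibition.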

Assays:
Experiment in all cases: DTP human tumour cell line panel, 48 h
HOP-62 NSCLC = system: HOP-62 NSCLC
COLO 205 colon = system: COLO 205 colon
OVCAR-8 ovarian = system: OVCAR-8 ovarian
SK-OV-3 ovarian = system: SK-OV-3 ovarian
CCRF-CEM leukemia = system: CCRF-CEM leukemia
KM12 colon = system: KM12 colon
NCI-H460 lung = system: NCI-H460 lung
A549 NSCLC = system: A549 NSCLC
SK-MEL-2 melanoma = system: SK-MEL-2 melanoma
MOLT-4 leukemia = system: MOLT-4 leukemia
OVCAR-3 ovarian = system: OVCAR-3 ovarian
A498 renal = system: A498 renal
MALME-3M melanoma = system: MALME-3M melanoma
SW-620 colon = system: SW-620 colon
SF-268 CNS = system: SF-268 CNS
SF-295 CNS = system: SF-295 CNS
HCT-15 colon = system: HCT-15 colon
OVCAR-4 ovarian = system: OVCAR-4 ovarian
SF-539 CNS = system: SF-539 CNS
SK-MEL-28 melanoma = system: SK-MEL-28 melanoma
IGROV1 ovarian = system: IGROV1 ovarian
UO-31 renal = system: UO-31 renal
UACC-62 melanoma = system: UACC-62 melanoma
NCI-H23 lung = system: NCI-H23 lung
SN12C renal = system: SN12C renal
HCC-2998 colon = system: HCC-2998 colon
DU-145 prostate = system: DU-145 prostate
EKVX NSCLC = system: EKVX NSCLC
SNB-75 CNS = system: SNB-75 CNS
LOX IMVI melanoma = system: LOX IMVI melanoma
HOP-92 NSCLC = system: HOP-92 NSCLC
NCI-H226 lung = system: NCI-H226 lung
MDA-MB-435 = system: MDA-MB-435
M14 melanoma = system: M14 melanoma
HS 578T breast = system: HS 578T breast
PC-3 prostate = system: PC-3 prostate
T-47D breast = system: T-47D breast
SK-MEL-5 melanoma = system: SK-MEL-5 melanoma
RXF 393 renal = system: RXF 393 renal
RPMI-8226 leukemia = system: RPMI-8226 leukemia
HT29 colon = system: HT29 colon
NCI/ADR-RES ovarian = system: NCI/ADR-RES ovarian
U251 CNS = system: U251 CNS
MDA-MB-231 breast = system: MDA-MB-231 breast
MCF7 breast = system: MCF7 breast
NCI-H522 lung = system: NCI-H522 lung
K-562 leukemia = system: K-562 leukemia
786-0 renal = system: 786-0 renal
HL-60(TB) leukemia = system: HL-60(TB) leukemia
OVCAR-5 ovarian = system: OVCAR-5 ovarian
UACC-257 melanoma = system: UACC-257 melanoma
CAKI-1 renal = system: CAKI-1 renal
HCT-116 colon = system: HCT-116 colon
ACHN renal = system: ACHN renal
BT-549 breast = system: BT-549 breast

SMILES: CNCCNc1nc2ccccc2c2c(=O)c3cccc(OC)c3sc12
- GI50 (HOP-62 NSCLC): 1250 nM
- TGI (HOP-62 NSCLC): 2920 nM
- GI50 (COLO 205 colon): 1110 nM
- TGI (COLO 205 colon): 2680 nM
- GI50 (OVCAR-8 ovarian): 1150 nM
- TGI (OVCAR-8 ovarian): 2800 nM
- GI50 (SK-OV-3 ovarian): 1650 nM
- TGI (SK-OV-3 ovarian): 3840 nM
- GI50 (CCRF-CEM leukemia): 1430 nM
- TGI (CCRF-CEM leukemia): 3200 nM
- GI50 (KM12 colon): 1620 nM
- TGI (KM12 colon): 3110 nM
- GI50 (NCI-H460 lung): 1230 nM
- TGI (NCI-H460 lung): 2720 nM
- GI50 (A549 NSCLC): 1200 nM
- TGI (A549 NSCLC): 2780 nM
- GI50 (SK-MEL-2 melanoma): 1780 nM
- TGI (SK-MEL-2 melanoma): 3620 nM
- GI50 (MOLT-4 leukemia): 427 nM
- TGI (MOLT-4 leukemia): 1630 nM
- GI50 (OVCAR-3 ovarian): 1520 nM
- TGI (OVCAR-3 ovarian): 3020 nM
- GI50 (A498 renal): 1410 nM
- TGI (A498 renal): 2970 nM
- GI50 (MALME-3M melanoma): 1830 nM
- TGI (MALME-3M melanoma): 3590 nM
- GI50 (SW-620 colon): 575 nM
- TGI (SW-620 colon): 2110 nM
- GI50 (SF-268 CNS): 1560 nM
- TGI (SF-268 CNS): 3330 nM
- GI50 (SF-295 CNS): 1550 nM
- TGI (SF-295 CNS): 3130 nM
- GI50 (HCT-15 colon): 829 nM
- TGI (HCT-15 colon): 2150 nM
- GI50 (OVCAR-4 ovarian): 1470 nM
- TGI (OVCAR-4 ovarian): 3160 nM
- GI50 (SF-539 CNS): 1690 nM
- TGI (SF-539 CNS): 3120 nM
- GI50 (SK-MEL-28 melanoma): 1940 nM
- TGI (SK-MEL-28 melanoma): 3620 nM
- GI50 (IGROV1 ovarian): 1000 nM
- TGI (IGROV1 ovarian): 2440 nM
- GI50 (UO-31 renal): 380 nM
- TGI (UO-31 renal): 2080 nM
- GI50 (UACC-62 melanoma): 1570 nM
- TGI (UACC-62 melanoma): 2970 nM
- GI50 (NCI-H23 lung): 1480 nM
- TGI (NCI-H23 lung): 3000 nM
- GI50 (SN12C renal): 1080 nM
- TGI (SN12C renal): 2530 nM
- GI50 (HCC-2998 colon): 1550 nM
- TGI (HCC-2998 colon): 3180 nM
- GI50 (DU-145 prostate): 1490 nM
- TGI (DU-145 prostate): 2950 nM
- GI50 (EKVX NSCLC): 1560 nM
- TGI (EKVX NSCLC): 3050 nM
- GI50 (SNB-75 CNS): 1100 nM
- TGI (SNB-75 CNS): 2330 nM
- GI50 (LOX IMVI melanoma): 1270 nM
- TGI (LOX IMVI melanoma): 2630 nM
- GI50 (HOP-92 NSCLC): 1130 nM
- TGI (HOP-92 NSCLC): 3770 nM
- GI50 (NCI-H226 lung): 1610 nM
- TGI (NCI-H226 lung): 3490 nM
- GI50 (MDA-MB-435): 1670 nM
- TGI (MDA-MB-435): 3090 nM
- GI50 (M14 melanoma): 1590 nM
- TGI (M14 melanoma): 3010 nM
- GI50 (HS 578T breast): 1570 nM
- TGI (HS 578T breast): 3970 nM
- GI50 (PC-3 prostate): 1240 nM
- TGI (PC-3 prostate): 2800 nM
- GI50 (T-47D breast): 1570 nM
- TGI (T-47D breast): 3560 nM
- GI50 (SK-MEL-5 melanoma): 1650 nM
- TGI (SK-MEL-5 melanoma): 3040 nM
- GI50 (RXF 393 renal): 1380 nM
- TGI (RXF 393 renal): 2750 nM
- GI50 (RPMI-8226 leukemia): 1430 nM
- TGI (RPMI-8226 leukemia): 3280 nM
- GI50 (HT29 colon): 652 nM
- TGI (HT29 colon): 2280 nM
- GI50 (NCI/ADR-RES ovarian): 1230 nM
- TGI (NCI/ADR-RES ovarian): 2840 nM
- GI50 (U251 CNS): 1240 nM
- TGI (U251 CNS): 2650 nM
- GI50 (MDA-MB-231 breast): 1300 nM
- TGI (MDA-MB-231 breast): 2780 nM
- GI50 (MCF7 breast): 1170 nM
- TGI (MCF7 breast): 2590 nM
- GI50 (NCI-H522 lung): 1340 nM
- TGI (NCI-H522 lung): 3100 nM
- GI50 (K-562 leukemia): 596 nM
- TGI (K-562 leukemia): 2650 nM
- GI50 (786-0 renal): 1760 nM
- TGI (786-0 renal): 3350 nM
- GI50 (HL-60(TB) leukemia): 1800 nM
- TGI (HL-60(TB) leukemia): 3640 nM
- GI50 (OVCAR-5 ovarian): 1640 nM
- TGI (OVCAR-5 ovarian): 3270 nM
- GI50 (UACC-257 melanoma): 1780 nM
- TGI (UACC-257 melanoma): 3670 nM
- GI50 (CAKI-1 renal): 1320 nM
- TGI (CAKI-1 renal): 2710 nM
- GI50 (HCT-116 colon): 547 nM
- TGI (HCT-116 colon): 1860 nM
- GI50 (ACHN renal): 1010 nM
- TGI (ACHN renal): 2300 nM
- GI50 (BT-549 breast): 1700 nM
- TGI (BT-549 breast): 3650 nM
